US20230373985A1 (Origenis Gmbh, priority 2020, published 2023)
pIC50: −log10 of the molar value.

Legend:
[1] = target: T1, wt human TYK2, catalytic site (Homo sapiens, UniProt P29597); experiment: HTRF KinEASE assay, TYK2; assay type: biochemical; conditions: 1 μM ATP; read-out: IC50, Activity Toward TYK2
T1 construct: wt human TYK2, catalytic site; purchased SignalChem
T1 sequence (P29597 897-1176 limits assumed): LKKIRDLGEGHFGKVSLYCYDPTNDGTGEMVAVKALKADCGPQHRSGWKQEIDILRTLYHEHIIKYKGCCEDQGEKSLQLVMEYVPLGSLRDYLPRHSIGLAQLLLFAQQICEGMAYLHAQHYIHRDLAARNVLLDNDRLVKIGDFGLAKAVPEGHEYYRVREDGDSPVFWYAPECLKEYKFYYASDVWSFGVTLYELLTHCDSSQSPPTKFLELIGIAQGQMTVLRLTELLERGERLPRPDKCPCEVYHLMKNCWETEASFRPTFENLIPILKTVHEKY
Outline: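 Kinase reaction run at room temperature for at least 30 min: 2 nM TYK2 with 1 μM ATP, or 1 nM JAK2 with 100 μM ATP, each with 1 μM biotin-TK substrate. Phosphorylation detected by HTRF (60 min antibody/XL665) and evaluated from emission ratios.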

[2] = target: T2, wt human JAK1, catalytic site (Homo sapiens, UniProt P23458); experiment: HTRF KinEASE assay, JAK1; assay type: biochemical; conditions: 2.5 μM ATP; read-out: IC50, Activity Toward JAK1
T2 construct: wt human JAK1, catalytic site; purchased ThermoFisher
Outline: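 Compounds in DMSO dilution were mixed with kinase, biotin-TK substrate and ATP and reacted for ≥30 min at room temperature. Detection reagents (antibody, streptavidin-XL665) were read 60 min later as HTRF, with emission ratios analysed per KinEASE protocol.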

T2 sequence (P23458 875-1153 limits assumed): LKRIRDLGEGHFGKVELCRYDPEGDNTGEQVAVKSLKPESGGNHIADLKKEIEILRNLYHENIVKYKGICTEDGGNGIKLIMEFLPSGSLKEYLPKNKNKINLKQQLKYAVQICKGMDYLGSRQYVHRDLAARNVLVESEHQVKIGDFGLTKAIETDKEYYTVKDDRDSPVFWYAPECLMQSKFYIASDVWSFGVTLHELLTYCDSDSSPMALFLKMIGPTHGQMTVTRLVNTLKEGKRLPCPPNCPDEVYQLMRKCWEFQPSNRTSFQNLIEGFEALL

For CC(C)c1ncnn1-c1ccc(Nc2cn(-c3c(Cl)cccc3Cl)nc2C(N)=O)cc1 [compound 341, 1-(2,6-dichlorophenyl)-4-((4-(5-isopropyl-1H-1,2,4-triazol-1-yl)phenyl)amino)-1H-pyrazole-3-carboxamide], the pIC50 [1] was 7.00 to 8.00 and the pIC50 [2] was 6.00 to 7.00.
Work on NC(=O)c1nn(-c2c(Cl)cccc2Cl)cc1Nc1ccc(-n2ncnc2CO)cc1 [compound 348, 1-(2,6-dichlorophenyl)-4-((4-(5-(hydroxymethyl)-1H-1,2,4-triazol-1-yl)phenyl)amino)-1H-pyrazole-3-carboxamide] yielded a pIC50 [1] greater than 8.00 and a pIC50 [2] of 7.00 to 8.00.
Cc1cnncc1-c1ccc(Nc2cn(-c3c(Cl)cccc3Cl)nc2C(N)=O)cn1 [compound 350, 1-(2,6-dichlorophenyl)-4-((6-(5-methylpyridazin-4-yl)pyridin-3-yl)amino)-1H-pyrazole-3-carboxamide] gave a pIC50 [1] of 6.00 to 7.00 and a pIC50 [2] of 6.00 to 7.00.
Work on CCc1cnncc1-c1ccc(Nc2cn(-c3c(Cl)cccc3Cl)nc2C(N)=O)cn1 [compound 351, 1-(2,6-dichlorophenyl)-4-((6-(5-ethylpyridazin-4-yl)pyridin-3-yl)amino)-1H-pyrazole-3-carboxamide] yielded a pIC50 [1] of 7.00 to 8.00 and a pIC50 [2] of 6.00 to 7.00.
NC(=O)c1nn(-c2c(Cl)cccc2Cl)cc1Nc1ccc(-c2ccnnc2)nc1 [compound 352, 1-(2,6-dichlorophenyl)-4-((6-(pyridazin-4-yl)pyridin-3-yl)amino)-1H-pyrazole-3-carboxamide] was tested, and the pIC50 [1] was 6.00 to 7.00 and the pIC50 [2] was 6.00 to 7.00.
Compound CN(C)[C@H]1CCN(C(=O)c2ccc(Nc3cn(-c4c(Cl)cccc4Cl)nc3C(N)=O)cn2)C1 [compound 354, (S)-1-(2,6-dichlorophenyl)-4-((6-(3-(dimethylamino)pyrrolidine-1-carbonyl)pyridin-3-yl)amino)-1H-pyrazole-3-carboxamide] has a pIC50 [1] of 7.00 to 8.00 and a pIC50 [2] of 6.00 to 7.00.
In the case of NC(=O)c1nn(-c2c(Cl)cccc2Cl)cc1Nc1ccc(C(=O)N2CC[C@@H](N3CCCC3)C2)nc1 [compound 356, (R)-4-((6-([1,3′-bipyrrolidine]-1′-carbonyl)pyridin-3-yl)amino)-1-(2,6-dichlorophenyl)-1H-pyrazole-3-carboxamide], the pIC50 [1] was 7.00 to 8.00 and the pIC50 [2] was 6.00 to 7.00.
Work on NC(=O)c1nn(-c2c(Cl)cccc2Cl)cc1Nc1ccc(C(=O)N2CC[C@H](N)C2)nc1 [compound 357, (S)-4-((6-(3-aminopyrrolidine-1-carbonyl)pyridin-3-yl)amino)-1-(2,6-dichlorophenyl)-1H-pyrazole-3-carboxamide] yielded a pIC50 [1] of 7.00 to 8.00 and a pIC50 [2] of 6.00 to 7.00.
For NC(=O)c1nn(-c2c(Cl)cccc2Cl)cc1Nc1ccc(C(=O)N2CCCC2)nc1 [compound 358, 1-(2,6-dichlorophenyl)-4-((6-(pyrrolidine-1-carbonyl)pyridin-3-yl)amino)-1H-pyrazole-3-carboxamide], the pIC50 [1] was 7.00 to 8.00 and the pIC50 [2] was 6.00 to 7.00.
Work on Cn1cnnc1-c1ccc(Nc2cn(-c3c(Cl)cccc3Cl)nc2C(N)=O)cn1 [compound 360, 1-(2,6-dichlorophenyl)-4-((6-(4-methyl-4H-1,2,4-triazol-3-yl)pyridin-3-yl)amino)-1H-pyrazole-3-carboxamide] yielded a pIC50 [1] of 7.00 to 8.00 and a pIC50 [2] of 6.00 to 7.00.
NC(=O)c1nn(-c2c(Cl)cccc2Cl)cc1Nc1ccc(C(=O)N2CC(F)(F)C(F)(F)C2)nc1 [compound 362, 1-(2,6-dichlorophenyl)-4-((6-(3,3,4,4-tetrafluoropyrrolidine-1-carbonyl)pyridin-3-yl)amino)-1H-pyrazole-3-carboxamide] was tested, and the pIC50 [1] was 7.00 to 8.00 and the pIC50 [2] was 6.00 to 7.00.
CN1CCN(C(=O)c2ccc(Nc3cn(-c4c(Cl)cccc4Cl)nc3C(N)=O)cn2)CC1 [compound 363, 1-(2,6-dichlorophenyl)-4-((6-(4-methylpiperazine-1-carbonyl)pyridin-3-yl)amino)-1H-pyrazole-3-carboxamide] showed a pIC50 [1] of 7.00 to 8.00 and a pIC50 [2] of 6.00 to 7.00.
